Key:
[1] = system: Fibroblast growth factor receptor 3 (Homo sapiens), P22607 [K650E]; assay: Inhibition of FGFR3 K650E mutant at 10 uM
[2] = target: Bone morphogenetic protein receptor type-1A (Homo sapiens) (UniProt P36894); assay: Inhibition of BMPR1A at 10 uM
[3] = target: Serine/threonine-protein kinase PLK1 (Homo sapiens) (UniProt P53350); assay: Inhibition of PLK1 at 10 uM
[4] = target: Mitogen-activated protein kinase 12 (Homo sapiens) (UniProt P53778); assay: Inhibition of p38gamma at 10 uM
[5] = target: Dual specificity mitogen-activated protein kinase kinase 6 (Homo sapiens) (UniProt P52564); assay: Inhibition of MAP2K6 at 10 uM
[6] = target: MAP/microtubule affinity-regulating kinase 3 (Homo sapiens) (UniProt P27448); assay: Inhibition of MARK3 at 10 uM
[7] = target: Serine/threonine-protein kinase PAK 2 (Homo sapiens) (UniProt Q13177); assay: Inhibition of PAK2 at 10 uM
[8] = target: Dual specificity protein kinase CLK3 (Homo sapiens) (UniProt P49761); assay: Inhibition of CLK3 at 10 uM
[9] = target: STE20-like serine/threonine-protein kinase (Homo sapiens) (UniProt Q9H2G2); assay: Inhibition of SLK at 10 uM
[10] = target: Dual specificity tyrosine-phosphorylation-regulated kinase 2 (Homo sapiens) (UniProt Q92630); assay: Inhibition of DYRK2 at 10 uM
[11] = target: Serine/threonine-protein kinase MARK2 (Homo sapiens) (UniProt Q7KZI7); assay: Inhibition of MARK2 at 10 uM
Serine/threonine-protein kinase MARK2 (Homo sapiens), sequence (Q7KZI7 whole entry): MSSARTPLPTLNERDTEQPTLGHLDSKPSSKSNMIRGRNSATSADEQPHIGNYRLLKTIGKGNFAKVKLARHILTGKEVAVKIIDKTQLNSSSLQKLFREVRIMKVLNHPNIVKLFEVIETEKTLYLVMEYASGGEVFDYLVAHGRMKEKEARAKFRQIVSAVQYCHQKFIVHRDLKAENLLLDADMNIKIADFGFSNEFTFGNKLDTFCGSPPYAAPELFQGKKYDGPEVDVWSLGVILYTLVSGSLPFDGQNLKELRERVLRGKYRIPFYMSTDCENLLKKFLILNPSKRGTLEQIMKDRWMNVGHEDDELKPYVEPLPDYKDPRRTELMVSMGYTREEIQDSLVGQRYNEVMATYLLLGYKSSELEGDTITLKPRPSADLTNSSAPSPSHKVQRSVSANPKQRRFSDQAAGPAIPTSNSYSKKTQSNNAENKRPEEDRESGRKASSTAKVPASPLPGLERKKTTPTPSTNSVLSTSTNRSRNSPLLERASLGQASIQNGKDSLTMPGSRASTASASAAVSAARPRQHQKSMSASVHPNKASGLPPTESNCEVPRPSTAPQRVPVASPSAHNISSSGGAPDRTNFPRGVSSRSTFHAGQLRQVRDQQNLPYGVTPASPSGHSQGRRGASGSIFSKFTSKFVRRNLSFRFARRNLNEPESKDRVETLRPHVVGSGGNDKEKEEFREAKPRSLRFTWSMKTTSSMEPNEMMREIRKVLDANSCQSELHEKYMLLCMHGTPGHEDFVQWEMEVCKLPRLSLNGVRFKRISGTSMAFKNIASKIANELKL

[12] = target: Mitogen-activated protein kinase 10 (Homo sapiens) (UniProt P53779); assay: Inhibition of JNK3 at 10 uM
[13] = target: Dual specificity mitogen-activated protein kinase kinase 2 (Homo sapiens) (UniProt P36507); assay: Inhibition of MAP2K2 at 10 uM
[14] = target: Ribosomal protein S6 kinase alpha-2 (Homo sapiens) (UniProt Q15349); assay: Inhibition of RSK3 N-terminal at 10 uM
[15] = target: Tyrosine-protein kinase receptor UFO (Homo sapiens) (UniProt P30530); assay: Inhibition of AXL at 10 uM
[16] = target: Activated CDC42 kinase 1 (Homo sapiens) (UniProt Q07912); assay: Inhibition of TNK2 at 10 uM
[17] = target: Ribosomal protein S6 kinase alpha-4 (Homo sapiens) (UniProt O75676); assay: Inhibition of MSK2 N-terminal at 10 uM
[18] = target: Serine/threonine-protein kinase SIK2 (Homo sapiens) (UniProt Q9H0K1); assay: Inhibition of QIK at 10 uM
Serine/threonine-protein kinase SIK2 (Homo sapiens), sequence (Q9H0K1 whole entry, looked up): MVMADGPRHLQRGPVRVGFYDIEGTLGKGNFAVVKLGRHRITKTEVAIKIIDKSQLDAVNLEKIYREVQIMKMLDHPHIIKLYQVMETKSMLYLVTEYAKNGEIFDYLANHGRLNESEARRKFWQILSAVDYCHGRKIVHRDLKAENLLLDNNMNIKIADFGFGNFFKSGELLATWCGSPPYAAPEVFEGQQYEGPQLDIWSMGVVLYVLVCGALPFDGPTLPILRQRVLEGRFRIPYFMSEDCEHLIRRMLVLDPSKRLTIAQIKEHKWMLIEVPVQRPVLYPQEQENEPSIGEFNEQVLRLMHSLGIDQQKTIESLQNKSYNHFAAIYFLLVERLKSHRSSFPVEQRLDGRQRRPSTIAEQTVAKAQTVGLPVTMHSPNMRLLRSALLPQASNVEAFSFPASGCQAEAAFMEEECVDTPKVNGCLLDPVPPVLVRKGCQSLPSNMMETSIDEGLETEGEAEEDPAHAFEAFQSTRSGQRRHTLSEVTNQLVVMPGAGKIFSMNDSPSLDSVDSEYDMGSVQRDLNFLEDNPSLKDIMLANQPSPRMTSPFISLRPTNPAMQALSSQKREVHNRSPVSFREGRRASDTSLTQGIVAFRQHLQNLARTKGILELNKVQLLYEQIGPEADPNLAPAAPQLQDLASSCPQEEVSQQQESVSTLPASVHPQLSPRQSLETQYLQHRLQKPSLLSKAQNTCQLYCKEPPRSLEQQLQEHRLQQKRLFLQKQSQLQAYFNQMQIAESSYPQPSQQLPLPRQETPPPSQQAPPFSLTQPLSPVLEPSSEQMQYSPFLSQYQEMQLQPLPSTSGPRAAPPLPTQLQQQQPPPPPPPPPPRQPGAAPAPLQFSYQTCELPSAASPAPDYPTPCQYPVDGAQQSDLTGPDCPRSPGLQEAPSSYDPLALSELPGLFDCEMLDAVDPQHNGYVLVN

[19] = target: [Pyruvate dehydrogenase (acetyl-transferring)] kinase isozyme 2, mitochondrial (Homo sapiens) (UniProt Q15119); assay: Inhibition of PDHK2 at 10 uM
[20] = target: Aurora kinase B/Inner centromere protein (Homo sapiens) (UniProt Q96GD4+Q9NQS7); assay: Inhibition of AurB-INCENP at 10 uM; assay type: protein-complex assay
[21] = target: NT-3 growth factor receptor (Homo sapiens) (UniProt Q16288); assay: Inhibition of TRKC at 10 uM
[22] = target: Tyrosine-protein kinase Mer (Homo sapiens) (UniProt Q12866); assay: Inhibition of MER at 10 uM
[23] = target: Dual specificity tyrosine-phosphorylation-regulated kinase 3 (Homo sapiens) (UniProt O43781); assay: Inhibition of DYRK3 at 10 uM
[24] = target: Mitogen-activated protein kinase 11 (Homo sapiens) (UniProt Q15759); assay: Inhibition of p38beta at 10 uM
Mitogen-activated protein kinase 11 (Homo sapiens), sequence (Q15759 whole entry): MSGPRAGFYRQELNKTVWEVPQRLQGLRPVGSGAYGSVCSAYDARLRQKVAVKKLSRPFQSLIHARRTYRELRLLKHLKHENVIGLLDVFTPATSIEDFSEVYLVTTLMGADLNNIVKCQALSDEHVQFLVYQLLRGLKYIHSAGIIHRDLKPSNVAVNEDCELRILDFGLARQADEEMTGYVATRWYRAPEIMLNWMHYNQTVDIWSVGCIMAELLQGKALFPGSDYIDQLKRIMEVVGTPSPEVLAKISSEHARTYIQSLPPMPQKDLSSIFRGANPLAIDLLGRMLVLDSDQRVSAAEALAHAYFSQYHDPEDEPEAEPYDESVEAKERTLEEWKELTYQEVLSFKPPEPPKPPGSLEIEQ

[25] = target: NUAK family SNF1-like kinase 2 (Homo sapiens) (UniProt Q9H093); assay: Inhibition of NuaK2 at 10 uM
[26] = target: Rho-associated protein kinase 2 (Homo sapiens) (UniProt O75116); assay: Inhibition of ROCK2 at 10 uM
Rho-associated protein kinase 2 (Homo sapiens), sequence (O75116 whole entry, looked up): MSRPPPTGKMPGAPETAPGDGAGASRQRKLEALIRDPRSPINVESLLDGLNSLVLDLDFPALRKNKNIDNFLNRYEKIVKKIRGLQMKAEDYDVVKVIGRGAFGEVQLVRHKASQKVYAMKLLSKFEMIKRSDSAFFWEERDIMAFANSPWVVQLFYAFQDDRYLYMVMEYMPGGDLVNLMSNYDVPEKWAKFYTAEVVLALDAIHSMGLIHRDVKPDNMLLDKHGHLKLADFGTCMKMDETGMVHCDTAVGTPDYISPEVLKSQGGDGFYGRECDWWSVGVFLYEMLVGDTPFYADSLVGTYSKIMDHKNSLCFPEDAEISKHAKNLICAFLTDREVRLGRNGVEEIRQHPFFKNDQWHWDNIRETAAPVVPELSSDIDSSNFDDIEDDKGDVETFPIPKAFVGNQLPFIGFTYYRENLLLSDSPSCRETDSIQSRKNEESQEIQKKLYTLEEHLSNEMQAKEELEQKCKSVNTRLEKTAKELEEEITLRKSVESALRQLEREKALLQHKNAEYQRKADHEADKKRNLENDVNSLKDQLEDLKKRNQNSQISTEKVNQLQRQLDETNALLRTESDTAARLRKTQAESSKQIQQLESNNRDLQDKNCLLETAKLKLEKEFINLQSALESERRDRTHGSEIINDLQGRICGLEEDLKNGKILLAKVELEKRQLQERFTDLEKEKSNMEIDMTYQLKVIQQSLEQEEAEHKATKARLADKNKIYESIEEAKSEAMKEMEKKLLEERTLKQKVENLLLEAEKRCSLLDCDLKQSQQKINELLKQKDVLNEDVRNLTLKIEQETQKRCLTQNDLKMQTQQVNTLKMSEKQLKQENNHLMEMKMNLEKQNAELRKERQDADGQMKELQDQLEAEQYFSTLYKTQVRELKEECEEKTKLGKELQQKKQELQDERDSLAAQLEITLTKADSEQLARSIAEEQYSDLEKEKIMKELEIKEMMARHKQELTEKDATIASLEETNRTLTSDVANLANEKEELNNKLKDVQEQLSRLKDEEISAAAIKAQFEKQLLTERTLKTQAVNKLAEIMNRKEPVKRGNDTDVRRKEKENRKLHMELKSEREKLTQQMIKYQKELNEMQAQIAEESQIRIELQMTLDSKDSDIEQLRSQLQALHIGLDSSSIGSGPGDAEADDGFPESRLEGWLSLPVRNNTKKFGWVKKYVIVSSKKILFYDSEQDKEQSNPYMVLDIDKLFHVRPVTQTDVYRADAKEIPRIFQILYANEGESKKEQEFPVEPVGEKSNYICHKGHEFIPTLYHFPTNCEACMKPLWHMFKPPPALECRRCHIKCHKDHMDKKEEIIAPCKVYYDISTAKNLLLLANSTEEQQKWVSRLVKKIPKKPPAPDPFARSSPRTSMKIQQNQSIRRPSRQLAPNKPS

[27] = target: Muscle, skeletal receptor tyrosine-protein kinase (Homo sapiens) (UniProt O15146); assay: Inhibition of MUSK at 10 uM
[28] = target: Serine/threonine-protein kinase LATS2 (Homo sapiens) (UniProt Q9NRM7); assay: Inhibition of LATS2 at 10 uM
[29] = target: Fibroblast growth factor receptor 2 (Homo sapiens) (UniProt P21802); assay: Inhibition of FGFR2 at 10 uM
[30] = target: Ribosomal protein S6 kinase alpha-1 (Homo sapiens) (UniProt Q15418); assay: Inhibition of RSK1 N-terminal at 10 uM
[31] = target: Calcium/calmodulin-dependent protein kinase type 1D (Homo sapiens) (UniProt Q8IU85); assay: Inhibition of CaMK1d at 10 uM
[32] = target: Mitogen-activated protein kinase kinase kinase 11 (Homo sapiens) (UniProt Q16584); assay: Inhibition of MLK3 at 10 uM
[33] = target: Serine/threonine-protein kinase 3 (Homo sapiens) (UniProt Q13188); assay: Inhibition of MST2 at 10 uM
[34] = target: Misshapen-like kinase 1 (Homo sapiens) (UniProt Q8N4C8); assay: Inhibition of MINK at 10 uM
[35] = target: Serine/threonine-protein kinase TBK1 (Homo sapiens) (UniProt Q9UHD2); assay: Inhibition of TBK1 at 10 uM
[36] = target: [Pyruvate dehydrogenase (acetyl-transferring)] kinase isozyme 4, mitochondrial (Homo sapiens) (UniProt Q16654); assay: Inhibition of PDHK4 at 10 uM
[Pyruvate dehydrogenase (acetyl-transferring)] kinase isozyme 4, mitochondrial (Homo sapiens), sequence (Q16654 whole entry, looked up): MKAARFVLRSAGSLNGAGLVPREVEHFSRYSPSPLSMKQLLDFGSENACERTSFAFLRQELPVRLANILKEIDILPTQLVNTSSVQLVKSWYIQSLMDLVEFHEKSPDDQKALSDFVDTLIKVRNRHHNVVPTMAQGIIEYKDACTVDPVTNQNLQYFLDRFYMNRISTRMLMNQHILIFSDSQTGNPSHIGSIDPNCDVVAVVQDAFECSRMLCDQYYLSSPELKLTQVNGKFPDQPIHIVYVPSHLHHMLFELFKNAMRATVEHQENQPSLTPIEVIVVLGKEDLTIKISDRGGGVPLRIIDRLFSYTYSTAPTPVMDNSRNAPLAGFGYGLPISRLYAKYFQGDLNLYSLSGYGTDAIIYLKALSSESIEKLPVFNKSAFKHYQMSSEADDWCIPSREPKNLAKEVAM

[37] = target: MAP kinase-activated protein kinase 2 (Homo sapiens) (UniProt P49137); assay: Inhibition of MAPKAPK2 at 10 uM
[38] = system: Epidermal growth factor receptor (Homo sapiens), P00533 [T790M]; assay: Inhibition of EGFR T790M mutant at 10 uM; assay type: protein assay
[39] = target: Dual specificity mitogen-activated protein kinase kinase 1 (Homo sapiens) (UniProt Q02750); assay: Inhibition of MAP2K1 at 10 uM
[40] = target: CDC7/DBF4 (Cell division cycle 7-related protein kinase/Activator of S phase kinase) (Homo sapiens) (UniProt Q9UBU7+O00311); assay: Inhibition of CDC7-Dbf4 at 10 uM; assay type: protein-complex assay
[41] = target: Mitogen-activated protein kinase 8 (Homo sapiens) (UniProt P45983); assay: Inhibition of JNK1 at 10 uM
Mitogen-activated protein kinase 8 (Homo sapiens), sequence (P45983 whole entry): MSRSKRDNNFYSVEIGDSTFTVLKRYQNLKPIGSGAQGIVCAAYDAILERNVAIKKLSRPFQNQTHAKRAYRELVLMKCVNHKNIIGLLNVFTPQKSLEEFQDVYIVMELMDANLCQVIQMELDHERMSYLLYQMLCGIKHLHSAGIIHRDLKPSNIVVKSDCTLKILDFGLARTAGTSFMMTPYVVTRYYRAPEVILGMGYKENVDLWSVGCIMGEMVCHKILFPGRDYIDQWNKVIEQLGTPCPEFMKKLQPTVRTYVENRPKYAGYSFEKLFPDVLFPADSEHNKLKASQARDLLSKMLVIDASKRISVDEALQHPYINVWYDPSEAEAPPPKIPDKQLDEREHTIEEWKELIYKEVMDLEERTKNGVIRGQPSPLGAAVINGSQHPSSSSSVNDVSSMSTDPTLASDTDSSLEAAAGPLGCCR

[42] = target: Serine/threonine-protein kinase Nek9 (Homo sapiens) (UniProt Q8TD19); assay: Inhibition of NEK9 at 10 uM
[43] = target: Casein kinase I isoform alpha (Homo sapiens) (UniProt P48729); assay: Inhibition of CK1a at 10 uM
[44] = target: ALK tyrosine kinase receptor (Homo sapiens) (UniProt Q9UM73); assay: Inhibition of ALK at 10 uM
[45] = target: Serine/threonine-protein kinase Nek1 (Homo sapiens) (UniProt Q96PY6); assay: Inhibition of NEK1 at 10 uM
[46] = target: Protein kinase C eta type (Homo sapiens) (UniProt P24723); assay: Inhibition of PKCh at 10 uM

Serine/threonine-protein kinase PLK1 (Homo sapiens), sequence (P53350 whole entry): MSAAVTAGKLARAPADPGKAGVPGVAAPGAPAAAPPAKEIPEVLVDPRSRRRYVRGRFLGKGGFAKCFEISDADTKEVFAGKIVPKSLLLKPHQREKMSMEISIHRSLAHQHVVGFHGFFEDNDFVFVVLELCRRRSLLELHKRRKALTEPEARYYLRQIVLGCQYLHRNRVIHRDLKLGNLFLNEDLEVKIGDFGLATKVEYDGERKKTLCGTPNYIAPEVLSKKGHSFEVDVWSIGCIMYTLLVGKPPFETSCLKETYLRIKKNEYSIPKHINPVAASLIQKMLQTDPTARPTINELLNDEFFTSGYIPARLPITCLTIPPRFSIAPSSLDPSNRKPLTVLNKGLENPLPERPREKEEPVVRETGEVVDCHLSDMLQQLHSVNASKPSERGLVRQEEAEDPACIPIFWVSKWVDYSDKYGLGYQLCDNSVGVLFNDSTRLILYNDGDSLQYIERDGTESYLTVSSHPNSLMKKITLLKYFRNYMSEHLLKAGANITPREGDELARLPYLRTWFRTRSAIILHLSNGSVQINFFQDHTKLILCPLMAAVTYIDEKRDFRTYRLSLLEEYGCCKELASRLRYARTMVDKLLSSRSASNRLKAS

## COc1ccc2c3ccnc(C(F)(F)F)c3n(CCCCN)c2c1
[1]
  inhibition: 3%
[2]
  inhibition: 35%
[3]
  inhibition: 0%
[4]
  inhibition: 66%
[5]
  inhibition: 46%
[6]
  inhibition: 47%
[7]
  inhibition: 13%
[8]
  inhibition: 37%
[9]
  inhibition: 20%
[10]
  inhibition: 86%
[11]
  inhibition: 52%
[12]
  inhibition: 17%
[13]
  inhibition: 6%
[14]
  inhibition: 36%
[15]
  inhibition: 34%
[16]
  inhibition: 0%
[17]
  inhibition: 16%
[18]
  inhibition: 26%
[19]
  inhibition: 0%
[20]
  inhibition: 5%
[21]
  inhibition: 25%
[22]
  inhibition: 35%
[23]
  inhibition: 97%
[24]
  inhibition: 5%
[25]
  inhibition: 27%
[26]
  inhibition: 87%
[27]
  inhibition: 42%
[28]
  inhibition: 26%
[29]
  inhibition: 0%
[30]
  inhibition: 27%
[31]
  inhibition: 4%
[32]
  inhibition: 3%
[33]
  inhibition: 3%
[34]
  inhibition: 17%
[35]
  inhibition: 4%
[36]
  inhibition: 34%
[37]
  inhibition: 7%
[38]
  inhibition: 3%
[39]
  inhibition: 16%
[40]
  inhibition: 14%
[41]
  inhibition: 44%
[42]
  inhibition: 0%
[43]
  inhibition: 73%
[44]
  inhibition: 5%
[45]
  inhibition: 5%
[46]
  inhibition: 77%
